Holding throughout (assay type): cell-based, human
In assay [1] the test system is myeloid leukemia KG1 cell line. Put plainly: Cell proliferation of KG1, flow cytometric cell count. To be noted: for Recovery of cell number after wash-out: washed free after 6 hours of exposure, 7 days drug-free medium. The procedure:
Cell lines: Human leukemic cell lines were obtained from the American Type Culture Collection (ATCC, Rockville, Md., USA). They were cultured in Iscove's Modified Dulbecco's Medium (IMDM) supplemented with 10% heat inactivated fetal calf serum (FCS), 200 U/ml penicillin, 200 μg/ml streptomycin and 1 μg/ml amphotericin B. Cells were cultured in a 5% CO2-95% air fully humidified incubator. For effects on clonogenic output, 1000 cells/well were plated in duplicate in methylcellulose (0.9%), supplemented with 20% FCS for 14 days.
Cells were plated at 10000 per well in 200 μl IMDM medium and incubated with 0-50 μM of the novel compounds (Tab 8), by addition of drug directly to the culture medium and incubated at 37° C. for 96 hours (Tab 8). Absolute cell number was determined by addition of a known concentration Fluoresbrite microspheres (FITC) (Polysciences, Inc.). The absolute number of cells/well was calculated as: {(total number of beads added/well)/(number of beads measured)×(number of measured cells in the gate of interest)}. All analyses were performed with a FACScan (BD), using CELLQuest software (Becton Dickinson).
Response of the myeloid leukemia KG1 and T-lymphocyte leukemia Molt3 cell lines to the cytostatic effect of the novel compounds was determined using the above-mentioned standardized bead suspension that was used to determine the absolute cell number by flow cytometric (FCM) measurement. Cells were grown in the presence of increasing concentration of the novel compounds.
To determine reversibility of the effects of the novel compounds, cells were plated at 10000 per well and exposed to 0-50 μM of the compounds for the time indicated, followed by washing in phosphate-buffered saline (PBS) (Life Technologies) and reseeded into drug-free medium for 7 additional days. An identical set of cells was plated and exposed to the drugs for 7 additional days. After 7 days (168 hours), the relative cell number was assayed by flow cytometry.

In assay [2] the test system is adult bone marrow CD34+CD38− cells. Put plainly: Pre-CFU assay. To be noted: for IC50: 14-day liquid culture, secondary methylcellulose culture. An excerpt:
Adult Bone Marrow Cells (ABM): Bone marrow samples were obtained by sternal puncture from hematologically normal donors undergoing cardiac surgery, after obtaining informed consent according to the ethical regulations of the University of Antwerp. Cells were collected in IMDM supplemented with 10% FCS and 100 U/ml heparin and separated by density gradient as mentioned for PBMC. After washing, cells were resuspended in IMDM 10% FCS and were sorted on a FACStar (Becton Dickinson, Erembodegem, Belgium).
Cell sorting: ABM cells (10^7 cells/ml) were incubated with 43A1 hybridoma supernatant at a 1/10 dilution for 20 minutes at 4° C. The supernatant of the 43A1 hybridoma (immunoglobulin IgG3) was kindly donated by Dr. H. J. Bühring (University of Tübingen, Germany) and was used as a source of anti-CD34 antibodies. After washing twice in IMDM, the cells were incubated with FITC-conjugated rabbit anti-mouse IgG (1/40 dilution) for 20 min at 4° C. After washing twice cells were incubated for 10 minutes with 5 μg mouse Ig and for 15 minutes with anti-CD38-PE (20 μl/10^6 cells). After washing twice in IMDM, the cells were sorted on a FACStarPlus cell sorter equipped with an water-cooled argon ion laser (INNOVA Enterprise Ion Laser) with multiple wave length outputs including UV (488 nm). Cells with low-to-medium forward and low side scatter, highly positive green (CD34) fluorescence, and an orange (CD38) fluorescence signal lower than the mean fluorescence of cells labeled with an irrelevant isotype-matched control antibody were retained as CD34^+CD38^− cells; cells with an orange fluorescence above this threshold were retained as CD34^+CD38^+ cells.
Pre-CFU: Pre-CFU assays were initiated by performing liquid cultures of CD34^+CD38^− in duplicate in 96-well flat-bottomed plates in IMDM/10% FCS, 1% bovine serum albumin (BSA), and different combinations of the following cytokines: 100 U/ml IL-1, 200 U/ml IL-6, 30 U/ml IL-3 and 100 ng/ml stel cell factor (SCF). Pre-CFU cultures were initiated with 500 CD34^+CD38^− cells/well (200 μl). After 14 days of culture at 37° C. in 7.5% O2 and 5% CO2 in a fully humidified incubator, the number of cells in each well was counted. Following this the cells were harvested, washed three times in IMDM/10% FCS, and plated in duplicate at 500 cells/well (1000 μl) in secondary methylcellulose CFU cultures as described for CFU assays.
Pre-CFU were cultured starting from adult bone marrow CD34^+CD38^− cells, that had been isolated using the FCM cell sorter. Novel compounds were added at different concentrations to the primary 14-day liquid culture. IC50 was calculated from dose-response curves from total clonogenic output after secondary methylcellulose culture (Tab. 8).

Assay [3] has as its system KG1 cells. Description: Induction of apoptosis in tumor cells (microscopy, flow cytometry). Particulars: for Speed of apoptosis induction: scored after 6, 12, 24, 48 and 72 hours. The procedure: Microscopy: Nuclear morphology of the cells was analyzed with the fluorochromes Hoechst 33342 (λEx max 346 nm; λEm max 460 nm) (Sigma) prepared in phosphate-buffered saline (PBS at 0.1 mg/ml, added to the culture medium at a final concentration of 2 μg/ml and ethidium homodimer (EB) (λEx max 540 nm; λEm max 625 nm) (Sigma) prepared in PBS at 100 μg/ml and added to the culture medium at a final concentration of 2 μg/ml (Lizard, 1995). Hundred cells were counted for each sample and percentage of apoptosis was determined.
TdT-mediated dUTP nick end labeling (TUNEL): Control and novel compound-treated cell cultures were washed with PBS and fixed in 1% buffered formaldehyde (pH 7.4) for 15 minutes on ice. After washing in PBS, cells were permeabilized in 70% cold (−20° C.) ethanol and transferred to 4° C. for at least 1 hour. After rehydratation in PBS, cells were labeled with 50 μl/well TUNEL reaction mixture (Boehringer Mannheim). Cells were incubated in this solution at 37° C. for 40 minutes, washed in PBS and resuspended in 500 μl PBS containing 5 μg/ml EB and 0.1% RNAse. After 30 minutes of incubation at 4° C., green (FITC-dUTP) and red (EB-DNA) fluorescence of individual cells was measured on a FACscan flow cytometer (Gorczyca, 1993). Negative control (fixed and permeabilized cells incubated with 50 μl label solution per well without terminal transferase, instead of TUNEL reaction mixture) and positive control (fixed and permeabilized cells incubated with DNase I (100 μg/ml) that induces DNA strand breaks) were included in each experimental set-up.
Viable, apoptotic, necrotic (=primary necrosis, not following apoptosis) and secondarily necrotic cells (=late apoptosis, evolving to necrosis) were scored differentially after 6, 12, 24, 48 and 72 hours of exposure to novel compounds. For the three products a different apoptosis-inducing pattern could be observed. Apoptosis induction occurs fast after incubation with 172 and 201 but slower after incubation with 98.
After 6 and 12 hours of incubation the apoptotic population seems mainly to evolve from S phase. […]
(In general: In flow cytometry, cells or beads pass a laser one at a time.)

Where [4] appears, read: continuous exposure, 7 days (168 hours), read-out: IC50, KG1 cells exposed continuously.

Read-outs that look alike come from different tables or passages of the source.

As usually defined, the IC50 is the concentration needed to halve the response being measured.

As for “5-(3-aminoethylamino)-7-(3,4-dihydroxybenzyl)amino-3-isopropylpyrazolo[4,3-d]pyrimidine [Compound 201]”, the half-inhibitory concentration (IC50) was determined as 12 ± 1.3 µM in assay [1] (96 hours, read-out: KG1 IC50); 16 ± 1.3 µM in assay [1] (setting [4]); 1.5 µM in assay [2]. The “Recovery of cell number after wash-out” value in assay [1] is listed as “substantial recovery of cell number”. Moreover, the “Incubation time after which apoptosis is detected” value in assay [3] (flow cytometry, cell line not given) was 6 h. Moreover, in assay [3], the “Speed of apoptosis induction” value is “fast”.
For the molecule “5-(3-aminopropylamino)-7-benzylamino-3-isopropylpyrazolo[4,3-d]pyrimidine [Compound 17]”, the half-maximal inhibitory concentration (IC50) in assay [1] (96 hours, read-out: KG1 IC50) is 6 ± 1 µM; in assay [1] (setting [4]), 16 ± 1.7 µM; in assay [2], 10 µM. Besides, the “Recovery of cell number after wash-out” value in assay [1] is given as “substantial recovery of cell number”.
In the case of “5-(3-hydroxypropylamino)-7-[(R,S)-(1-phenyl-2-hydroxyethyl)amino-3-isopropylpyrazolo[4,3-d]pyrimidine [Compound 172]”, the IC50 was 3 ± 1 µM in assay [1] (96 hours, read-out: KG1 IC50); 7 ± 2 µM in assay [1] (setting [4]); over 25 µM in assay [2]. For the same molecule, in assay [1], the “Recovery of cell number after wash-out” value is listed as “substantial recovery of cell number”. In assay [3], the “Speed of apoptosis induction” value is “fast”.
“5-(methylthio)-7-[N-(3,4-dihydroxybenzyl-N-methyl]amino-3 isopropylpyrazolo[4,3-d]pyrimidine [Compound 26]”: the IC50 was 13 ± 0.2 µM in assay [1] (96 hours, read-out: KG1 IC50) and 86 µM in assay [2]. The “Activity on pre-CFU compared with CFU” value in assay [2] is listed as “more active on pre-CFU than on CFU”.
In the case of `CCCCCCNc1nc(NC(CO)c2ccccc2)c2[nH]nc(C(C)C)c2n1` (centres unmarked) [Compound 98, 5-(hexylamino)-7-(1-phenyl-2-hydroxyethylamino)-3-isopropylpyrazolo[4,3-d]pyrimidine], the IC50 is 5 ± 0.3 µM in assay [1] (Homo sapiens, KG-1, 96 hours, read-out: KG1 IC50) and over 25 µM in assay [2] (Homo sapiens, 336 h).

The values are drawn from patent publication US7745450B2, “Pyrazolo[4,3-d]pyrimidines, processes for their preparation and methods for therapy” (Institute of Experimental Botany, priority 2002, dated 2010).
